Measured values published in ChEMBL document CHEMBL1201862, “PubChem BioAssay data set” (2004).
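Briefly, cells in 96-well plates were exposed to five compound concentrations for 48 h, and endpoints were estimated by linear interpolation. Here, GI50 denotes the concentration required for 50% inhibition of growth.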 Activity calls are given as the source filed them. Cut-off read from the data, not from the text of the source: active = GI50 up to about 1.1 µM and inactive = higher.

What was measured:
Assay in all cases: inhibition of tumour cell growth, NCI panel, 48 h
KM12 = test system: KM12
HOP-62 = test system: HOP-62
786-0 = test system: 786-0
K562 = test system: K562
ACHN = test system: ACHN
SK-OV-3 = test system: SK-OV-3
TK-10 = test system: TK-10
SW-620 = test system: SW-620
NCI-H522 = test system: NCI-H522
HCT-15 = test system: HCT-15
DMS-114 = test system: DMS-114
UACC-257 = test system: UACC-257
UACC-62 = test system: UACC-62
OVCAR-3 = test system: OVCAR-3
OVCAR-8 = test system: OVCAR-8
SNB-75 = test system: SNB-75
SK-MEL-2 = test system: SK-MEL-2
RPMI-8226 = test system: RPMI-8226
SK-MEL-5 = test system: SK-MEL-5
MDA-MB-231 = test system: MDA-MB-231

Measured: GI50

COC(=O)C(C(=O)C(=O)Nc1ccc(C)cc1C)c1csc(-n2nc(-c3ccccc3)cc2-c2ccccc2)n1 (centres undefined)
52.1 µM: HCT-15
inactive: KM12 65.2 µM | HOP-62 > 100 µM | 786-0 > 100 µM | K562 93.5 µM | ACHN 53.5 µM | SK-OV-3 > 100 µM | TK-10 > 100 µM | SW-620 > 100 µM | NCI-H522 > 100 µM | DMS-114 23.8 µM | UACC-257 > 100 µM | UACC-62 61.7 µM | OVCAR-3 86.5 µM | OVCAR-8 > 100 µM | SNB-75 6.37 µM

COc1ccc(C2C(C(=O)O)=C(COC(C)=O)Oc3cc4c(cc32)OCO4)c(OC)c1 (centres undefined)
inactive: HOP-62 > 100 µM | 786-0 > 100 µM | K562 > 100 µM | ACHN > 100 µM | SK-OV-3 > 100 µM | TK-10 > 100 µM | SK-MEL-2 > 100 µM | SW-620 > 100 µM | DMS-114 > 100 µM | RPMI-8226 > 100 µM | UACC-257 > 100 µM | SK-MEL-5 > 100 µM | UACC-62 > 100 µM | OVCAR-3 > 100 µM | OVCAR-8 > 100 µM | SNB-75 > 100 µM
> 100 µM: HCT-15

COc1cc2c(cc1O)CCN[C@@]21CS[C@H]2c3c(OC(C)=O)c(C)c4c(c3C(COC1=O)N1C2C2NC(Cc3cc(C)c(OC)c(O)c32)[C@@H]1C#N)OCO4 (some centres undefined)
active: HOP-62 < 0.01 µM | 786-0 < 0.01 µM | K562 < 0.01 µM | ACHN < 0.01 µM | TK-10 < 0.01 µM | SK-MEL-2 < 0.01 µM | SW-620 < 0.01 µM | DMS-114 < 0.01 µM | RPMI-8226 < 0.01 µM | SK-MEL-5 < 0.01 µM | UACC-62 < 0.01 µM | OVCAR-3 < 0.01 µM | SNB-75 < 0.01 µM
< 0.01 µM: HCT-15

c1ccc(N2N=NC3C4CC(C5c6ccccc6C45)C32)cc1 (centres undefined)
inactive: KM12 39.3 µM | HOP-62 64.4 µM | 786-0 59 µM | K562 36.1 µM | SK-OV-3 31.5 µM | TK-10 > 100 µM | SW-620 36.6 µM | NCI-H522 20.5 µM | DMS-114 19.9 µM | RPMI-8226 18.4 µM | UACC-257 24.2 µM | SK-MEL-5 18.7 µM | UACC-62 28.1 µM | OVCAR-3 26.6 µM | OVCAR-8 57.7 µM | SNB-75 35.7 µM
31.3 µM: HCT-15

C/C(=N/NS(=O)(=O)c1ccc([N+](=O)[O-])cc1)c1cccc[n+]1[O-]
> 100 µM: HCT-15
inactive: KM12 > 100 µM | HOP-62 > 100 µM | 786-0 > 100 µM | K562 > 100 µM | ACHN > 100 µM | SK-OV-3 > 100 µM | TK-10 > 100 µM | SW-620 > 100 µM | NCI-H522 > 100 µM | DMS-114 > 100 µM | RPMI-8226 > 100 µM | UACC-257 > 100 µM | SK-MEL-5 > 100 µM | UACC-62 > 100 µM | OVCAR-3 > 100 µM | OVCAR-8 > 100 µM | SNB-75 > 100 µM

COC(=O)C(=O)C(C(=O)C(=O)Nc1ccccc1C(N)=O)c1nc2ccc(C(=O)c3ccccc3)cc2nc1O (centres undefined)
inactive: KM12 67.3 µM | 786-0 > 100 µM | K562 42.6 µM | ACHN > 100 µM | TK-10 > 100 µM | SK-MEL-2 > 100 µM | SW-620 > 100 µM | NCI-H522 23.5 µM | DMS-114 > 100 µM | RPMI-8226 > 100 µM | UACC-257 > 100 µM | SK-MEL-5 52.6 µM | UACC-62 27.6 µM | OVCAR-8 > 100 µM
> 100 µM: HCT-15

O=C1C(c2ccc([N+](=O)[O-])cc2)=[N+]([O-])c2ccc([N+](=O)[O-])cc21
inactive: KM12 74 µM | 786-0 > 100 µM | K562 27.7 µM | ACHN 32.2 µM | SK-OV-3 36.4 µM | TK-10 77.8 µM | SW-620 39.4 µM | DMS-114 30.1 µM | RPMI-8226 15.5 µM | SK-MEL-5 30.8 µM | UACC-62 21 µM | OVCAR-3 17.3 µM | OVCAR-8 29.3 µM | SNB-75 62.1 µM

COc1ccc2oc(=O)c(-c3nc4ccccc4s3)cc2c1
inactive: KM12 > 55.3 µM | HOP-62 14.2 µM | 786-0 7.82 µM | MDA-MB-231 18.7 µM | K562 > 100 µM | ACHN 5.55 µM | SK-OV-3 13.6 µM | TK-10 32.2 µM | SK-MEL-2 > 100 µM | SW-620 32.6 µM | NCI-H522 29.4 µM | RPMI-8226 > 62.7 µM | UACC-257 > 85.1 µM | SK-MEL-5 33.5 µM | UACC-62 43.5 µM | OVCAR-3 14.2 µM | OVCAR-8 14.9 µM | SNB-75 8.65 µM
> 79.6 µM: HCT-15

O=c1c2ccccc2[nH]n1Cc1ccccc1
inactive: KM12 > 100 µM | HOP-62 > 100 µM | 786-0 > 100 µM | MDA-MB-231 > 100 µM | K562 > 100 µM | ACHN > 100 µM | SK-OV-3 > 100 µM | TK-10 > 100 µM | SK-MEL-2 > 100 µM | SW-620 > 100 µM | NCI-H522 > 100 µM | RPMI-8226 > 100 µM | UACC-257 > 100 µM | SK-MEL-5 > 100 µM | UACC-62 > 100 µM | OVCAR-3 > 100 µM | OVCAR-8 > 100 µM | SNB-75 > 100 µM
> 100 µM: HCT-15

COC(=O)/C=C/C(=O)C1C(C(=O)OC)C2(C(=O)OC)CCC1(C(=O)OC)N2 (centres undefined)
> 100 µM: HCT-15
inactive: KM12 > 100 µM | HOP-62 > 100 µM | 786-0 > 100 µM | K562 > 100 µM | SK-OV-3 > 100 µM | TK-10 > 100 µM | SK-MEL-2 > 100 µM | DMS-114 > 100 µM | RPMI-8226 > 100 µM | SK-MEL-5 > 100 µM | UACC-62 > 100 µM | OVCAR-3 > 100 µM | OVCAR-8 > 100 µM

NCC1(N2CCOCC2)C2CCCC21CO (centres undefined)
inactive: KM12 > 100 µM | HOP-62 > 100 µM | 786-0 > 100 µM | K562 > 100 µM | ACHN > 100 µM | SK-OV-3 > 100 µM | SK-MEL-2 > 100 µM | SW-620 > 100 µM | NCI-H522 > 100 µM | DMS-114 > 100 µM | RPMI-8226 > 100 µM | UACC-257 > 100 µM | SK-MEL-5 > 100 µM | OVCAR-3 > 100 µM | OVCAR-8 > 100 µM | SNB-75 > 100 µM
> 100 µM: HCT-15

CCC(C)C1NC(=O)C(NC(=O)C(CC(C)C)N(C)C(=O)[C@@H]2C=CCN2C(=O)[C@H](C)O)C(C)OC(=O)[C@H](Cc2ccc(OC)cc2)N(C)C(=O)[C@@H]2CCCN2C(=O)[C@H](CC(C)C)NC(=O)C(C)C(=O)[C@H](C(C)C)OC(=O)CC1O (some centres undefined)
active: KM12 < 0.01 µM | HOP-62 0.00303 µM | 786-0 0.00185 µM | MDA-MB-231 0.00608 µM | K562 0.0021 µM | ACHN 0.00402 µM | SK-OV-3 0.00239 µM | TK-10 0.0175 µM | SK-MEL-2 < 0.01 µM | SW-620 0.00308 µM | NCI-H522 0.00111 µM | RPMI-8226 0.00267 µM | UACC-257 0.00311 µM | SK-MEL-5 0.000914 µM | UACC-62 0.00119 µM | OVCAR-3 0.00393 µM | OVCAR-8 0.00467 µM | SNB-75 0.00198 µM
0.0239 µM: HCT-15
